# Values quoted from earlier work as cited in patent US20250031694A1, “AGRICULTURAL CHEMICAL COMPOSITION AND METHOD FOR PRODUCING SAME” (MITSUI CHEMICALS CROP & LIFE SOLUTIONS, INC., priority 2021, published 2025).
# Details: FAMIC agrochemical abstract
Compound,water solubility (20° C.),water solubility (25° C.)
CC(=O)Oc1c(C)c(C)nc2c(F)cc(C(C)(C)C)cc12 [tebufloquin],20.2 µg/mL,
C=CCOC1=NS(=O)(=O)c2ccccc21 [probenazole],36.6 µg/mL,
CCCOCCN(C(=O)CCl)c1c(CC)cccc1CC [pretilachlor],,74 µg/mL
CN1COCN(Cc2cnc(Cl)s2)/C1=N\[N+](=O)[O-] [thiamethoxam],,4100 µg/mL
